According to patent publication US11071731B2, “Allosteric modulators of the mu opioid receptor” (Chiromics, LLC, priority 2017, dated 2021):

How the values were obtained:
[1] = target: T1, mu opioid receptor (MOR) (Homo sapiens, UniProt P35372); experiment: Hit Hunter cAMP signaling assay (adenylyl cyclase inhibition), PAM mode with EC20 endomorphin-1; assay type: cell-based
[2] = target: T1, mu opioid receptor (MOR); experiment: PathHunter β-arrestin recruitment assay, PAM mode with EC20 endomorphin-1; assay type: cell-based; settings: for EC50: read-out: β-arr. EC50
Procedure, shortened: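 β-Arrestin recruitment to the receptor was tracked by chemiluminescent β-galactosidase activity from complementing fragments (ED on receptor, EA on β-arrestin). Per-compound outputs were EC50 and percent maximal response.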

[3] = cAMP EC50, adenylyl cyclase inhibition
[4] = maximal response for adenylyl cyclase inhibition
[5] = maximal response for β-arrestin recruitment
[6] = adenylyl cyclase inhibition, read-out: cAMP EC50
[7] = maximal response, adenylyl cyclase inhibition
[8] = maximal response, β-arrestin recruitment

T1 sequence (P35372 whole entry): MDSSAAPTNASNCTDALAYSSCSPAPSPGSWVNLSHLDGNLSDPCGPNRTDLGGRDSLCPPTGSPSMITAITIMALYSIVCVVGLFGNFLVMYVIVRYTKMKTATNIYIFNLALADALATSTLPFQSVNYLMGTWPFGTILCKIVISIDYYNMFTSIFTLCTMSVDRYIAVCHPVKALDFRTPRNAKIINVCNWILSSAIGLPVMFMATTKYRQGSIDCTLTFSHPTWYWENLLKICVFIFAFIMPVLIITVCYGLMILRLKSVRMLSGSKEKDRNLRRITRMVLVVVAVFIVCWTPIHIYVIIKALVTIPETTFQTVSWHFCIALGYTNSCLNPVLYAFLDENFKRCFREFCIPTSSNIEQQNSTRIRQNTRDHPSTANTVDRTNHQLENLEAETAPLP

Row | SMILES | EC50 [1, 3] | cAMP Max. Resp. [1, 4] | β-arr Max. Resp. [2, 5] | EC50 ([2]; β-arrestin recruitment) | EC50 [1, 6] | cAMP Max. Resp. [1, 7] | β-arr Max. Resp. [2, 8]
1 | FC(F)(F)c1cccc(CN2CCCCC2c2cccc(C(F)(F)F)n2)c1 (stereo not shown) [compound 175] | > 2100 nM | E (E represents a maximal response of 40-60%) | F (F represents a maximal response of > 60%) | > 2100 nM | – | – | –
2 | Fc1cccc(C2CCCCN2Cc2cc(Cl)ccc2F)n1 (stereo not shown) [compound 171] | 700 to 2100 nM | E (E represents a maximal response of 40-60%) | F (F represents a maximal response of > 60%) | 700 to 2100 nM | – | – | –
3 | Fc1ccc(C(F)(F)F)cc1C1CCCCN1c1nc(Cl)ncc1F (stereo not shown) [compound 353] | < 700 nM | D (D represents a maximal response of < 40%) | D (D represents a maximal response of < 40%) | < 700 nM | – | – | –
4 | FC(F)(F)c1cccc(C2CCCCN2Cc2cccc(Cl)c2)c1 (stereo not shown) [compound 154] | < 700 nM | E (E represents a maximal response of 40-60%) | F (F represents a maximal response of > 60%) | < 700 nM | – | – | –
5 | CN(C)c1cccc(C2CCCCN2c2nc(N(C)C)ncc2F)n1 (stereo not shown) [compound 243] | > 2100 nM | E (E represents a maximal response of 40-60%) | F (F represents a maximal response of > 60%) | > 2100 nM | – | – | –
6 | CC1CC(c2cccc(C(F)(F)F)c2)N(c2nc(Cl)ncc2F)C1 (stereo not shown) [compound 448] | – | – | – | > 2100 nM | > 2100 nM | D (D represents a maximal response of < 40%) | F (F represents a maximal response of > 60%)
7 | Fc1cnc(Cl)nc1N1CCCCC1c1cnc2cccnn12 (stereo not shown) [compound 337] | < 700 nM | D (D represents a maximal response of < 40%) | D (D represents a maximal response of < 40%) | < 700 nM | – | – | –
8 | COC(=O)c1ccc(N2CCCCC2c2ccc(F)c(Cl)c2)cc1 (stereo not shown) [compound 477] | > 2100 nM | – | – | > 2100 nM | – | D (D represents a maximal response of < 40%) | F (F represents a maximal response of > 60%)
9 | OC1Cc2ccccc2C1N1CCCCC1c1ccc(F)c(Cl)c1 (stereo not shown) [compound 447] | > 2100 nM | – | – | > 2100 nM | – | D (D represents a maximal response of < 40%) | D (D represents a maximal response of < 40%)
10 | CC1CCN(S(=O)(=O)c2ccc(Cl)cc2)C1c1ccc(F)c(Cl)c1 (mixture of isomers) [Compound 105] | – | D (D represents a maximal response of < 40%) | F (F represents a maximal response of > 60%) | 700 to 2100 nM | 700 to 2100 nM | – | –
11 | Fc1cnc(Cl)nc1N1CCCCC1c1c(C(F)(F)F)ccc(F)c1Br (stereo not shown) [compound 354] | < 700 nM | D (D represents a maximal response of < 40%) | D (D represents a maximal response of < 40%) | < 700 nM | – | – | –
12 | Fc1cc(C2COCCN2Cc2cc(Cl)ccc2F)cc(C(F)(F)F)c1 (racemic) [Compound 195] | – | D (D represents a maximal response of < 40%) | F (F represents a maximal response of > 60%) | 700 to 2100 nM | > 2100 nM | – | –
13 | [2H]C1(c2ccc(F)c(Br)c2)C(F)CCCN1S(=O)(=O)Cc1ccc(Cl)cc1 (stereo not shown) [Compound 33] | – | D (D represents a maximal response of < 40%) | F (F represents a maximal response of > 60%) | – | – | – | –
14 | CC1CCN(S(=O)(=O)c2ccc(Cl)cc2)C1c1ccc(F)c(Br)c1 (stereo not shown) [Compound 106] | – | D (D represents a maximal response of < 40%) | F (F represents a maximal response of > 60%) | 700 to 2100 nM | < 700 nM | – | –
15 | Fc1cnc(Cl)nc1N1CCCCC1c1cnc2ccccn12 (stereo not shown) [compound 336] | < 700 nM | D (D represents a maximal response of < 40%) | D (D represents a maximal response of < 40%) | < 700 nM | – | – | –
16 | OC1CN(c2ncc(F)c(N3CCCCC3c3cccc(C(F)(F)F)c3)n2)C1 (stereo not shown) [compound 256] | > 2100 nM | D (D represents a maximal response of < 40%) | D (D represents a maximal response of < 40%) | > 2100 nM | – | – | –
17 | CC(=O)N1CCN(c2nc(Cl)ncc2F)C(c2cc(F)cc(C(F)(F)F)c2)C1 (racemic) [Compound 308] | – | F (F represents a maximal response of > 60%) | E (E represents a maximal response of 40-60%) | > 2100 nM | > 2100 nM | – | –
18 | COc1ncc(F)c(N2CCCCC2c2ccc(F)c(Cl)c2)n1 (stereo not shown) [compound 461] | > 2100 nM | – | – | > 2100 nM | – | E (E represents a maximal response of 40-60%) | F (F represents a maximal response of > 60%)
19 | Fc1cnc(Cl)nc1N1CCCCC1c1ccc(OC(F)(F)F)c(Br)c1 (stereo not shown) [compound 126] | < 700 nM | E (E represents a maximal response of 40-60%) | F (F represents a maximal response of > 60%) | < 700 nM | – | – | –

Row | SMILES | EC50 [1, 3] | cAMP Max. Resp. [1, 4] | β-arr Max. Resp. [2, 5] | EC50 ([2]; β-arrestin recruitment) | EC50 [1, 6] | cAMP Max. Resp. [1, 7] | β-arr Max. Resp. [2, 8]
20 | O=C1CCN(c2nc(Cl)ncc2F)C(c2cccc(C(F)(F)F)c2)C1 (stereo not shown) [compound 239] | > 2100 nM | D (D represents a maximal response of < 40%) | E (E represents a maximal response of 40-60%) | > 2100 nM | – | – | –
21 | Fc1ccc(C2CCCCN2c2cccnc2N2CCOCC2)cc1Cl (stereo not shown) [compound 479] | – | – | – | > 2100 nM | > 2100 nM | D (D represents a maximal response of < 40%) | F (F represents a maximal response of > 60%)
22 | O=S(=O)(Cc1ccc(Cl)cc1)N1CCCC(F)C1c1ccc(F)c(Br)c1 (stereo not shown) [Compound 33] | – | – | – | > 2100 nM | > 2100 nM | – | –
23 | Oc1cnc2ccc(C3CCCCN3c3nc(Cl)ncc3F)cc2c1 (stereo not shown) [compound 393] | < 700 nM | D (D represents a maximal response of < 40%) | D (D represents a maximal response of < 40%) | < 700 nM | – | – | –
24 | Fc1ccc(C2CCCCN2c2nc(Cl)ncc2F)cc1C(F)F (stereo not shown) [compound 299] | < 700 nM | F (F represents a maximal response of > 60%) | F (F represents a maximal response of > 60%) | 700 to 2100 nM | – | – | –
25 | Fc1cnc(N2CCOCC2)nc1N1CCCCC1c1cccc(C(F)(F)F)c1 (stereo not shown) [compound 255] | > 2100 nM | F (F represents a maximal response of > 60%) | D (D represents a maximal response of < 40%) | > 2100 nM | – | – | –
26 | Fc1ccc(C2CCCCN2Cc2cc(Cl)cc(Cl)c2)cc1Cl (stereo not shown) [compound 151] | > 2100 nM | D (D represents a maximal response of < 40%) | F (F represents a maximal response of > 60%) | > 2100 nM | – | – | –
27 | [2H]C1(c2ccc(F)c(Br)c2)C(F)CCCN1S(=O)(=O)c1cccc(Cl)c1 (stereo not shown) [Compound 32] | – | D (D represents a maximal response of < 40%) | F (F represents a maximal response of > 60%) | – | – | – | –
28 | FC(F)(F)c1cccc(C2CCCCN2Cc2ccc(Cl)cc2)n1 (stereo not shown) [compound 146] | > 2100 nM | D (D represents a maximal response of < 40%) | F (F represents a maximal response of > 60%) | > 2100 nM | – | – | –
29 | Fc1cnc(Cl)nc1N1CCCCC1c1cc(C(F)(F)F)c2[nH]cnc2c1 (stereo not shown) [compound 417] | < 700 nM | D (D represents a maximal response of < 40%) | D (D represents a maximal response of < 40%) | < 700 nM | – | – | –
30 | O=S(=O)(c1ccc(Cl)cc1)N1CCOCC1c1ccc(F)c(Br)c1 (racemic) [Compound 185] | – | D (D represents a maximal response of < 40%) | F (F represents a maximal response of > 60%) | 700 to 2100 nM | > 2100 nM | – | –
31 | OC1CCN(c2nc(Cl)ncc2F)C(c2ccc(F)c(Cl)c2)C1 (stereo not shown) [compound 293] | 700 to 2100 nM | F (F represents a maximal response of > 60%) | F (F represents a maximal response of > 60%) | > 2100 nM | – | – | –
32 | Fc1ccc(C2CCCCN2c2nc(Cl)ncc2F)cc1Cl (single isomer, unassigned) [compound 343] | – | D (D represents a maximal response of < 40%) | D (D represents a maximal response of < 40%) | < 700 nM | < 700 nM | – | –
33 | Cc1nccc(N2CCCCC2c2ccc(F)c(Cl)c2)n1 (stereo not shown) [compound 480] | > 2100 nM | – | – | > 2100 nM | – | D (D represents a maximal response of < 40%) | D (D represents a maximal response of < 40%)
34 | Cc1ncccc1C1CCCCN1c1nc(Cl)ncc1F (stereo not shown) [compound 407] | < 700 nM | D (D represents a maximal response of < 40%) | D (D represents a maximal response of < 40%) | < 700 nM | – | – | –
35 | COc1ccc(C2CCCCN2c2ccc(Br)cn2)cc1Br (stereo not shown) [compound 231] | > 2100 nM | E (E represents a maximal response of 40-60%) | E (E represents a maximal response of 40-60%) | > 2100 nM | – | – | –
36 | COc1ccc(C2CCCCN2c2cc(F)cc(Cl)n2)cc1Br (stereo not shown) [compound 215] | > 2100 nM | D (D represents a maximal response of < 40%) | F (F represents a maximal response of > 60%) | 700 to 2100 nM | – | – | –
37 | COc1cccc(N2CCCCC2c2ccc(F)c(Cl)c2)c1 (stereo not shown) [compound 465] | > 2100 nM | – | – | > 2100 nM | – | D (D represents a maximal response of < 40%) | E (E represents a maximal response of 40-60%)
